The record followed here is paper PMC5982655, “Interaction of the New Monofunctional Anticancer Agent Phenanthriplatin With Transporters for Organic Cations” (Frontiers in Chemistry, 2018).

One test deals with T1, mOCT2 (Mus musculus, UniProt O70577).
T1 construct: expressed in transfected cells
T1 sequence (O70577 1-553): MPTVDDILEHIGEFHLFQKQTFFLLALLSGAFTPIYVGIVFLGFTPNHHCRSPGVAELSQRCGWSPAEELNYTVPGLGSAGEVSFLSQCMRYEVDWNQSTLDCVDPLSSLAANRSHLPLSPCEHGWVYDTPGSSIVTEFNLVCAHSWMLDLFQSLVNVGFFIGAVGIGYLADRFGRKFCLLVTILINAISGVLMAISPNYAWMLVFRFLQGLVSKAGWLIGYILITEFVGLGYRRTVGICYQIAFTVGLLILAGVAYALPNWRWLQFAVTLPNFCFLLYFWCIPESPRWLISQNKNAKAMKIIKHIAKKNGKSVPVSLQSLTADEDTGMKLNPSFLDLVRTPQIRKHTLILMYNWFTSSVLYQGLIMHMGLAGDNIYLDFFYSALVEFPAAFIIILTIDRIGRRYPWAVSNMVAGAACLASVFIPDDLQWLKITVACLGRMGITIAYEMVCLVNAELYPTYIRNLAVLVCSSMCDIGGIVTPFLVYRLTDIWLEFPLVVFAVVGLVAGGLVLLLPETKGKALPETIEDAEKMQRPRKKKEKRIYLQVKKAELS
The test is described as follows: Inhibition of ASP+ uptake in HEK 293 cells expressing mOCT2. Format: cell-based, murine. To be noted: HEK 293 mOCT2, 1 μM ASP+. The method, then:
(§1) The interaction of phenanthriplatin with transporters for organic cations (OCT1-3, MATE1, and MATE2K) was investigated by measuring its effects on the uptake of the fluorescent organic cation 4-(4-dimethylamino)styryl-N-methylpyridinium (ASP^+). Microfluorometric measurements of ASP^+ uptake were performed with a fluorescence plate reader (Infinity 200, Tecan, Crailsheim, Germany; excitation at 465 nm, emission at 590 nm) as described previously for cultured HEK 293 cells (Wilde et al., [2009]). Before measurements, the culture medium in the wells of the 96 well microtiter plate containing HEK 293 cells was replaced by a HCO3- -free Ringer-like solution containing (in mM) NaCl 145, K2HPO4 1.6, KH2PO4 0.4, D-glucose 5, MgCl2 1, calcium gluconate 1.3, and pH adjusted to 7.4. Fluorescence was measured dynamically at 37°C in each well before and after ASP^+ addition to HCO3- -free Ringer-like solution, alone or together with increasing phenanthriplatin concentrations, and plotted versus time. ASP^+ (final concentration 1 or 10 μM for experiments with OCTs or MATEs, respectively) was added after the third sampling interval. Emission from the complete area of the well bottom was analyzed four times and averaged for each well. […] Background fluorescence was measured for each plate in wells with identical solutions containing no cells and subtracted from each well containing cells. […]

For a further test, the target named is T2, hOCT2 (Homo sapiens, UniProt O15244).
T2 construct: expressed in transfected cells; gift of H. Koepsell
T2 sequence (O15244 1-555): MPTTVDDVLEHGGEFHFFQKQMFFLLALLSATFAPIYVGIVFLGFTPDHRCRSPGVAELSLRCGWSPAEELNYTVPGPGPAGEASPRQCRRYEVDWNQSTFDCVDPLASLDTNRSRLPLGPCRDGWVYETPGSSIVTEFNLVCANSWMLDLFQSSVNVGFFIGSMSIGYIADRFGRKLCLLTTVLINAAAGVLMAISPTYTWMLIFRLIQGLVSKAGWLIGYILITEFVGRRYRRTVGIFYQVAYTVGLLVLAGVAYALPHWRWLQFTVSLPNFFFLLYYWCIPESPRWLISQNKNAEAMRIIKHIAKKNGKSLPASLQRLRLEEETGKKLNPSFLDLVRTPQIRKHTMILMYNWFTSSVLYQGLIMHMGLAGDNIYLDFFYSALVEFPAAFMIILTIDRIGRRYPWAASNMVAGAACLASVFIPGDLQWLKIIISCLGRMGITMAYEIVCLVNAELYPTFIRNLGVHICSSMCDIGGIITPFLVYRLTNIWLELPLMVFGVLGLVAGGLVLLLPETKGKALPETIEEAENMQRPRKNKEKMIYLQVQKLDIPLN
The test is described as follows: Inhibition of ASP+ uptake in HEK 293 cells expressing hOCT2. Format: cell-based. The note with it: HEK 293 hOCT2, 1 μM ASP+. The method, then: The interaction of phenanthriplatin with transporters for organic cations (OCT1-3, MATE1, and MATE2K) was investigated by measuring its effects on the uptake of the fluorescent organic cation 4-(4-dimethylamino)styryl-N-methylpyridinium (ASP^+). Microfluorometric measurements of ASP^+ uptake were performed with a fluorescence plate reader (Infinity 200, Tecan, Crailsheim, Germany; excitation at 465 nm, emission at 590 nm) as described previously for cultured HEK 293 cells (Wilde et al., [2009]). Before measurements, the culture medium in the wells of the 96 well microtiter plate containing HEK 293 cells was replaced by a HCO3- -free Ringer-like solution containing (in mM) NaCl 145, K2HPO4 1.6, KH2PO4 0.4, D-glucose 5, MgCl2 1, calcium gluconate 1.3, and pH adjusted to 7.4. Fluorescence was measured dynamically at 37°C in each well before and after ASP^+ addition to HCO3- -free Ringer-like solution, alone or together with increasing phenanthriplatin concentrations, and plotted versus time. ASP^+ (final concentration 1 or 10 μM for experiments with OCTs or MATEs, respectively) was added after the third sampling interval. Emission from the complete area of the well bottom was analyzed four times and averaged for each well. […] Background fluorescence was measured for each plate in wells with identical solutions containing no cells and subtracted from each well containing cells. Experiments were performed with cells from one passage of the same day with controls and test replicates in the same plate.
Data are presented as mean values ± SEM, with (n) referring to the number of wells. IC50 values defined as the concentration of platinum agent required to inhibit uptake of ASP^+ by 50% and EC50 values used to assess cell viability were obtained by sigmoidal concentration-response curve fitting using GraphPad Prism, Version 5.3 (GraphPad Software, San Diego, USA). […] For multiple comparisons, ANOVA with Bonferroni post-test was used. A P-value < 0.05 was considered statistically significant.

The next test addresses T3, hMATE2K (Homo sapiens, UniProt Q86VL8).
T3 construct: expressed in transfected cells
The experiment in a line: Inhibition of ASP+ uptake in HEK 293 cells expressing hMATE2K. It is filed as cell-based. The note with it: HEK 293 hMATE2K, 10 μM ASP+. The method, then:
as §1

A further test relates to Ctr1^+/+ MEFs. The experiment in a line: MTT cell viability, Ctr1+/+ MEFs. It is filed as cell-based, mouse. The method, then: A modified 3-(4,5-dimethylthiazol-2-yl)-2,5-diphenyltetrazolium bromide (MTT) assay (Mosmann, [1983]) was used to test the chemosensitivity of cells to phenanthriplatin and, in some experiments, to cisplatin by determining the glycolysis rate via the reduction of the yellow tetrazolium salt MTT to a purple formazan dye, as previously described (Wehe et al., [2014]). Briefly, after growing for 24 h in the incubator, cells expressing or not hOCT2, hMATE1, hMATE2 or Ctr1 were treated for 10 min with platinum derivatives. Control cells were incubated with drug-free complete cell culture medium. Afterwards, the medium was carefully removed and replaced by 200 μL of fresh complete cell culture medium. After incubation for another 24 h, 10 μL of MTT solution containing 5 mg/mL of the dye were added to each well, and the cells were again incubated for 3 h. The medium was then removed and 100 μL of lysis buffer containing 10% (w/v) sodium dodecyl sulfate and 40% (v/v) dimethylformamide was added to each well. The plates were shaken for 10 min to destroy the cell structure and dissolve the blue formazan dye (Furchert et al., [2007]; Wehe et al., [2014]). Finally, the absorbance was measured at 590 nm using an automated microtiter plate reader (Infinite M200; Tecan, Männedorf, Switzerland). The percentage of viable cells in the untreated controls was compared to that for the various treatments. Experiments carried out with DAOY and UW228 cells followed a similar protocol except that these cells were incubated for 24 h with phenanthriplatin.

T3 sequence (Q86VL8 1-566 isoform Q86VL8-3): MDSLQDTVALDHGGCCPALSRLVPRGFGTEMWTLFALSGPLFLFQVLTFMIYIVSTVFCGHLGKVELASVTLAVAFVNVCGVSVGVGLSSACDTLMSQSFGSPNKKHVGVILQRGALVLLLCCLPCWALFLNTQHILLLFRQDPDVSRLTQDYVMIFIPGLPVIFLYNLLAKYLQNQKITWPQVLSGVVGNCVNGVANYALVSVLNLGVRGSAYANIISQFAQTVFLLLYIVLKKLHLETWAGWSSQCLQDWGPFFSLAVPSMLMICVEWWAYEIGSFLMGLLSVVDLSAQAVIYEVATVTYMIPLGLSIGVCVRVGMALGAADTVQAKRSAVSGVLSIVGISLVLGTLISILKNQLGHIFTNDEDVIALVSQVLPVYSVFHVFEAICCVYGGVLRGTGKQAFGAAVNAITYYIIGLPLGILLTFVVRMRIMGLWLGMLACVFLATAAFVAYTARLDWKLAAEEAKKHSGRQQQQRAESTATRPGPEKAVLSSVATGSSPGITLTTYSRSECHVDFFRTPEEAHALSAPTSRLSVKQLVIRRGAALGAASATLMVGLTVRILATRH

With `N.N.[Cl][Pt+].c1ccc2c(c1)cnc1ccccc12` [phenanthriplatin, cis-[Pt(NH3)2Cl(phenanthridine)]^+], the IC50 on mOCT2 came out at 2000 nM; on hOCT2, 2000 nM; against hMATE2K, 57000 nM. Besides, the “logIC50 (logEC50) ± SEM for inhibition of ASP+ uptake” value at mOCT2 is given as −5.64 ± 0.05; on hOCT2, −5.67 ± 0.10; on hMATE2K it was −4.24 ± 0.07. Besides, the “Cell viability (MTT)” value in the test with Ctr1^+/+ MEFs (1 mM, 10 min) is given as “toxic”; in the test with Ctr1^+/+ MEFs (lower concentrations (<1 mM)) it was “did not change the cell viability”.
